Source: patent US9556190B2, “Piperidinyloxy lactone orexin receptor antagonists” (MERCK SHARP & DOHME CORP., priority 2013, dated 2017)

Columns and labels:
hOX1R = hOX1R (Homo sapiens, UniProt O43613); assay: FLIPR Ca2+ Flux Assay, CHO cells expressing orexin-1 receptor; assay type: cell-based; settings: 70 pM Ala-6,12 orexin-A agonist
human orexin-2 receptor = human orexin-2 receptor (Homo sapiens (Human), UniProt O43614); assay: FLIPR Ca2+ Flux Assay, CHO cells expressing orexin-2 receptor; assay type: cell-based; settings: 70 pM Ala-6,12 orexin-A agonist, read-out: hOX2R FLIPR IC50
human orexin-2 receptor, sequence (O43614 whole entry): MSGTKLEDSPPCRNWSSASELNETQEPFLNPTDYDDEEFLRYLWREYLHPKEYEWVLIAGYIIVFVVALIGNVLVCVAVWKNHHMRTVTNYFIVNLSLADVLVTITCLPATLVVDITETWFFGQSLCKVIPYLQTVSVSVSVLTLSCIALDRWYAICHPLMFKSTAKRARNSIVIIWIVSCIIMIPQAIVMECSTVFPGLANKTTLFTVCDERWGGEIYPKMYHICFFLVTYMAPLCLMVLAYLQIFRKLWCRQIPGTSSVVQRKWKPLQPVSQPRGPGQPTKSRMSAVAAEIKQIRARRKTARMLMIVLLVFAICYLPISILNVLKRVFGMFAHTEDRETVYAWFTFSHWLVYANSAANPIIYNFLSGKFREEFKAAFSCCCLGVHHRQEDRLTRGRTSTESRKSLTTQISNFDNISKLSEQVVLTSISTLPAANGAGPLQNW
Experimental: The utility of the compounds in accordance with the present invention as orexin receptor OX1R and/or OX2R antagonists may be readily determined without undue experimentation by methodology well known in the art, including the “FLIPR Ca^2+ Flux Assay” (Okumura et al., Biochem. Biophys. Res. Comm. 280:976-981, 2001). In a typical experiment the OX1 and OX2 receptor antagonistic activity of the compounds of the present invention was determined in accordance with the following experimental method. For intracellular calcium measurements, Chinese hamster ovary (CHO) cells expressing the rat orexin-1 receptor or the human orexin-2 receptor, are grown in Iscove's modified DMEM containing 2 mM L-glutamine, […], 1% hypoxanthine-thymidine supplement, 100 U/ml penicillin, 100 μg/ml streptomycin and 10% heat-inactivated fetal calf serum (FCS). The cells are seeded at 20,000 cells/well into Becton-Dickinson black 384-well clear bottom sterile plates coated with poly-D-lysine. All reagents were from GIBCO-Invitrogen Corp. The seeded plates are incubated overnight at 37° C. and 5% CO2. Ala-6,12 human orexin-A as the agonist is prepared as a 1 mM stock solution in 1% bovine serum albumin (BSA) and diluted in assay buffer (HBSS containing 20 mM HEPES, 0.1% BSA and 2.5 mM probenecid, pH7.4) for use in the assay at a final concentration of 70 pM. Test compounds are prepared as 10 mM stock solution in DMSO, then diluted in 384-well plates, first in DMSO, then assay buffer. On the day of the assay, cells are washed 3 times with 100 μl assay buffer and then incubated for 60 min (37° C., 5% CO2) in 60 μl assay buffer containing 1 μM Fluo-4AM ester, 0.02% pluronic acid, and 1% BSA. The dye loading solution is then aspirated and cells are washed 3 times with 100 μl assay buffer. 30 μl of that same buffer is left in each well. Within the Fluorescent Imaging Plate Reader (FLIPR, Molecular Devices), test compounds are added to the plate in a volume of 25 μl, incubated for 5 min and finally 25 μl of agonist is added. Fluorescence is measured for each well at 1 second intervals for 5 minutes and the height of each fluorescence peak is compared to the height of the fluorescence peak induced by 70 pM Ala-6,12 orexin-A with buffer in place of antagonist. For each antagonist, IC50 value (the concentration of compound needed to inhibit 50% of the agonist response) is determined. Alternatively, compound potency can be assessed by a radioligand binding assay (described in Bergman et. al. Bioorg. Med. Chem. Lett. 2008, 18, 1425-1430) in which the inhibition constant (Ki) is determined in membranes prepared from CHO cells expressing either the OX1 or OX2 receptor. The intrinsic orexin receptor antagonist activity of a compound which may be used in the present invention may be determined by these assays.

Compound | IC50 (hOX1R) | IC50 (human orexin-2 receptor)
C[C@@H]1CC[C@@H](Oc2nccc3c2C(=O)OC3(C)C)CN1C(=O)c1cc(F)ccc1-n1nccn1 [Example 4, 4-{[(3R,6R)-1-{[5-fluoro-2-(2H-1,2,3-triazol-2-yl)phenyl]carbonyl}-6-methylpiperidin-3-yl]oxy}-1,1-dimethylfuro[3,4-c]pyridin-3(1H)-one] | 10000 nM | 23 nM
C[C@@H]1CC[C@@H](Oc2nccc3c2COC3=O)CN1C(=O)c1ccccc1-c1ncccn1 [Example 36, 4-({(3R,6R)-6-methyl-1-[(2-pyrimidin-2-ylphenyl)car-bonyl]piperidin-3-yl}oxy)furo[3,4-c]pyridin-1(3H)-one] | 3100 nM | 20 nM
COc1ccc(C(=O)N2C[C@H](Oc3nccc4c3C(=O)OC4(C)C)CC[C@H]2C)c(-n2nccn2)c1 [Example 11, 4-{[(3R,6R)-1-{[4-methoxy-2-(2H-1,2,3-triazol-2-yl)phenyl]carbonyl}-6-methylpiperidin-3-yl]oxy}-1,1-dimethylfuro[3,4-c]pyridin-3(1H)-one] | 10000 nM | 147 nM
